# Test results: patent US20260240831A1, “CANCER STRATIFICATION AND TREATMENT” (Deutsches Krebsforschungszentrum Stiftung des öffentlichen …, priority 2023, published 2026)
# System: GBM cells for SFRP1 overexpression
# Assay: SFRP1 inhibitor treatment of tumour-bearing human brain organoids, KI-67 immunohistochemistry
# Format: cell-based
# Conditions: 25 μM, 2 days, vs DMSO control; SFRP1-overexpressing GBM cells in human brain organoids
# Procedure: Lentivirally transduced GBM cells for SFRP1 overexpression were injected into day 116-old human brain organoids and cultured in brain Organoid Differentiation Medium with Vitamin A. Injected organoids were maintained for 15 days on an orbital shaker (70 RPM) at 5% CO2 and 37° C. After 15 days, organoids were transferred to culturing medium supplemented with 25 μM of SFRP1 inhibitor WAY-316606 or 25 μM DMSO as a control. Tumour-bearing organoids were maintained for 2 more days and then fixed with 4% formaldehyde for 1 hour at 4° C. on a roller. Fixed organoids were first placed in 10% sucrose in PBS until tissues sank, then transferred to 30% sucrose in PBS. Organoids were then embedded in OCT compound (Tissue-Tek). […]
# Confocal images of human brain organoids injected with GBM m-Cherry- and sFRP1-expressing cells that were treated with DMSO or sFRP1 inhibitor. Organoids were stained against Ki67 and mCherry and Ki67+/mCherry+ cells were quantified. […] The tumor origin of segmented cells was determined by assessing background corrected mean fluorescence intensities of the 2D integrated mCherry signal. The count of detected Ki67+/mCherry+ cells was then normalized to the imaged organoid volume yielding a density metric representing cycling tumor cells in both WAY inhibitor treated and DMSO control samples.
structure (smiles),measurement,value
"O=S(=O)(NC1CCNCC1)c1cc(S(=O)(=O)c2ccccc2)ccc1C(F)(F)F [WAY-316606, 5-(phenylsulfonyl)-N-4-piperidinyl-2-(trifluoromethyl)-benzenesulfonamide]",number of proliferating (KI-67+/mCherry+) tumor cells,drastically increases the number of proliferating cells
